Data taken from PMC9474474, “Determination of pharmacokinetics and tissue distribution of a novel lutetium-labeled PSMA-targeted ligand, ^177Lu-DOTA-PSMA-GUL, in rats by using LC–MS/MS” (Scientific Reports, 2022).

Legend:
[1] = Tissue distribution at steady state after i.v. bolus loading dose plus i.v. infusion in rats; assay type: in vivo, Male Sprague–Dawley rats; details: for plasma concentration at steady state: from 1.5 h of i.v. infusion
Method: Tissue distribution of ^175Lu-DOTA-PSMA-GUL was examined under two different steady-state conditions after i.v. infusion of ^175Lu-DOTA-PSMA-GUL. Two target steady-state plasma concentrations (Css) were set as 3000 and 6000 ng/mL. Rats were surgically cannulated with polyethylene tubing (0.58 mm i.d. and 0.96 mm o.d.; Natume, Tokyo, Japan) in the left jugular vein for blood sampling and femoral vein for i.v. injection and infusion. After one day of recovery, ^175Lu-DOTA-PSMA-GUL was administered by i.v. injection as a loading dose (LD) and i.v. infusion for 3 h to achieve the target Css. The i.v. bolus LD and i.v. infusion rates (K0) were calculated by LD = Css,target·Vss and K0 = Css,target·CL, respectively. […] The calculated LD was 0.60 mg/kg and 1.20 mg/kg for the target Css of 3,000 ng/mL and 6,000 ng/mL, respectively. The calculated K0 was 1.82 mg/h/kg and 3.65 mg/h/kg for the target Css of 3,000 ng/mL and 6,000 ng/mL, respectively.
Blood samples were collected at 1.5, 2, 2.5, and 3 h during i.v. infusion, and centrifuged at 3,200 × g for 10 min. At the end of the infusion, rats were sacrificed, and brain, lung, heart, spleen, small intestine, stomach, kidney, liver, prostate, fat, muscle, and testis were excised and immediately homogenized in normal saline. All samples were stored at -70 °C until analysis.
(§1) The plasma concentration–time data were analyzed by non-compartmental method using Phoenix® WinNonlin® (Pharsight, NC, USA). The fraction of ^175Lu-DOTA-PSMA-GUL excreted into urine (Furine) and feces (Ffeces) were calculated by the ratio of the total amount of drug excreted in the urine and feces to the fraction of the dose, respectively. The tissue-to-plasma partition coefficients (KP) were calculated as the tissue-to-plasma concentration ratios.

[2] = Excretion into urine and feces for 24 h after i.v. injection in rats; assay type: in vivo, Male Sprague–Dawley rats
Method: Freshly prepared ^175Lu-DOTA-PSMA-GUL solution (2.1 mg/mL) was administered by i.v. bolus injection via the penile vein (n = 5–7) at three doses of 1, 2, and 5 mg/kg. Approximately 0.3 mL of the jugular venous blood samples were collected at predetermined times after i.v. injection. Plasma samples were harvested by centrifugation of the blood samples at 3220 × g for 10 min. Urine and feces samples were collected at 4, 8, 12, and 24 h after i.v. injection. All samples were stored at -70 °C until analysis.
as §1

[3] = steady state, average of both infusion levels

Structure (SMILES): O=C([O-])CN1CCN(CC(=O)[O-])CCN(CC(=O)[O-])C(Cc2ccc(NC(=S)NCCCC[C@H](NC(=O)N[C@@H](CCC(=O)O)C(=O)O)C(=O)O)cc2)CN(CC(=O)[O-])CC1.[Lu+3] (stereo partly drawn) [^175Lu-DOTA-PSMA-GUL, Lutetium labeled-1,4,7,10-tetraazacyclododecane-1,4,7,10-tetraacetic acid (DOTA)-PSMA-GUL]
- Concentration, brain ([1]; CSS,target = 3000 ng/mL): BLOQ
- Concentration, fat ([1]; CSS,target = 3000 ng/mL): 320.68 ± 55.09 ng/g
- Concentration, heart ([1]; CSS,target = 3000 ng/mL): 645.67 ± 204.29 ng/g
- Concentration, kidney ([1]; CSS,target = 3000 ng/mL): 7253.09 ± 665.80 ng/g
- Concentration, liver ([1]; CSS,target = 3000 ng/mL): 949.81 ± 342.61 ng/g
- Concentration, lung ([1]; CSS,target = 3000 ng/mL): 962.76 ± 287.82 ng/g
- Concentration, muscle ([1]; CSS,target = 3000 ng/mL): 342.27 ± 188.70 ng/g
- Concentration, prostate ([1]; CSS,target = 3000 ng/mL): 2433.69 ± 2292.84 ng/g
- Concentration, small intestine ([1]; CSS,target = 3000 ng/mL): 741.67 ± 507.55 ng/g
- Concentration, spleen ([1]; CSS,target = 3000 ng/mL): 541.13 ± 52.33 ng/g
- Concentration, stomach ([1]; CSS,target = 3000 ng/mL): 276.46 ± 95.71 ng/g
- Concentration, testis ([1]; CSS,target = 3000 ng/mL): 504.17 ± 122.39 ng/g
- Tissue to plasma coefficient (KP), fat ([1]; CSS,target = 3000 ng/mL): 0.11 ± 0.02
- Tissue to plasma coefficient (KP), heart ([1]; CSS,target = 3000 ng/mL): 0.23 ± 0.07
- Tissue to plasma coefficient (KP), kidney ([1]; CSS,target = 3000 ng/mL): 2.56 ± 0.29
- Tissue to plasma coefficient (KP), liver ([1]; CSS,target = 3000 ng/mL): 0.33 ± 0.11
- Tissue to plasma coefficient (KP), lung ([1]; CSS,target = 3000 ng/mL): 0.34 ± 0.10
- Tissue to plasma coefficient (KP), muscle ([1]; CSS,target = 3000 ng/mL): 0.12 ± 0.07
- Tissue to plasma coefficient (KP), prostate ([1]; CSS,target = 3000 ng/mL): 0.86 ± 0.82
- Tissue to plasma coefficient (KP), small intestine ([1]; CSS,target = 3000 ng/mL): 0.26 ± 0.18
- Tissue to plasma coefficient (KP), spleen ([1]; CSS,target = 3000 ng/mL): 0.19 ± 0.02
- Tissue to plasma coefficient (KP), stomach ([1]; CSS,target = 3000 ng/mL): 0.10 ± 0.04
- Tissue to plasma coefficient (KP), testis ([1]; CSS,target = 3000 ng/mL): 0.18 ± 0.04
- Concentration, plasma ([1]; CSS,target = 3000 ng/mL, LD 0.60 mg/kg, infusion 1.82 mg/h/kg): 2845.62 ± 111.43 ng/mL
- Concentration, brain ([1]; CSS,target = 6000 ng/mL): BLOQ
- Concentration, fat ([1]; CSS,target = 6000 ng/mL): 406.59 ± 77.17 ng/g
- Concentration, heart ([1]; CSS,target = 6000 ng/mL): 737.57 ± 453.10 ng/g
- Concentration, kidney ([1]; CSS,target = 6000 ng/mL): 14,455.60 ± 1272.17 ng/g
- Concentration, liver ([1]; CSS,target = 6000 ng/mL): 1881.97 ± 267.48 ng/g
- Concentration, lung ([1]; CSS,target = 6000 ng/mL): 1480.52 ± 464.64 ng/g
- Concentration, muscle ([1]; CSS,target = 6000 ng/mL): 621.78 ± 419.81 ng/g
- Concentration, prostate ([1]; CSS,target = 6000 ng/mL): 8550.82 ± 7322.84 ng/g
- Concentration, small intestine ([1]; CSS,target = 6000 ng/mL): 1636.21 ± 1273.92 ng/g
- Concentration, spleen ([1]; CSS,target = 6000 ng/mL): 932.03 ± 368.50 ng/g
- Concentration, stomach ([1]; CSS,target = 6000 ng/mL): 612.39 ± 161.18 ng/g
- Concentration, testis ([1]; CSS,target = 6000 ng/mL): 877.83 ± 252.52 ng/g
- Tissue to plasma coefficient (KP), fat ([1]; CSS,target = 6000 ng/mL): 0.07 ± 0.02
- Tissue to plasma coefficient (KP), heart ([1]; CSS,target = 6000 ng/mL): 0.13 ± 0.08
- Tissue to plasma coefficient (KP), kidney ([1]; CSS,target = 6000 ng/mL): 2.61 ± 0.47
- Tissue to plasma coefficient (KP), liver ([1]; CSS,target = 6000 ng/mL): 0.34 ± 0.05
- Tissue to plasma coefficient (KP), lung ([1]; CSS,target = 6000 ng/mL): 0.26 ± 0.09
- Tissue to plasma coefficient (KP), muscle ([1]; CSS,target = 6000 ng/mL): 0.11 ± 0.07
- Tissue to plasma coefficient (KP), prostate ([1]; CSS,target = 6000 ng/mL): 1.54 ± 1.33
- Tissue to plasma coefficient (KP), small intestine ([1]; CSS,target = 6000 ng/mL): 0.29 ± 0.23
- Tissue to plasma coefficient (KP), spleen ([1]; CSS,target = 6000 ng/mL): 0.17 ± 0.08
- Tissue to plasma coefficient (KP), stomach ([1]; CSS,target = 6000 ng/mL): 0.11 ± 0.04
- Tissue to plasma coefficient (KP), testis ([1]; CSS,target = 6000 ng/mL): 0.15 ± 0.04
- Concentration, plasma ([1]; CSS,target = 6000 ng/mL, LD 1.20 mg/kg, infusion 3.65 mg/h/kg): 5713.2 ± 523.23 ng/mL
- plasma concentration at steady state ([1]; LD 0.60 mg/kg, infusion rate 1.82 mg/h/kg): approximately 3,000 ng/mL
- plasma concentration at steady state ([1]; LD 1.20 mg/kg, infusion rate 3.65 mg/h/kg): ~6,000 ng/mL
- detection in the brain ([1]; steady state after i.v. infusion): not detected
- average KP, kidneys [1, 3]: 2.58
- average KP, prostate [1, 3]: 1.20
- average KP, other tissues ([1]; steady state, tissues other than kidneys and prostate): less than 0.34
- Ffeces (fraction excreted into feces) ([2]; i.v. injection 1 mg/kg): 5.46 ± 4.11%
- Furine (fraction excreted into urine) ([2]; i.v. injection 1 mg/kg): 58.71 ± 21.26%
- Ffeces (fraction excreted into feces) ([2]; i.v. injection 2 mg/kg): 1.08 ± 0.76%
- Furine (fraction excreted into urine) ([2]; i.v. injection 2 mg/kg): 54.59 ± 25.98%
- Ffeces (fraction excreted into feces) ([2]; i.v. injection 5 mg/kg): 6.41 ± 3.68%
- Furine (fraction excreted into urine) ([2]; i.v. injection 5 mg/kg): 59.89 ± 22.82%
